Test results taken from ChEMBL document CHEMBL4842383 (J Med Chem, 2021).
Blank lines part the entries; values can stand above or below the compound they belong to.

Columns and labels:
[1] = molecular target: Macrophage colony-stimulating factor 1 receptor (Homo sapiens, UniProt P07333); experiment: Inhibition of human recombinant GST-CSF1R (residues L534 to C972) expressed in Sf9 insect cells using poly(Glu,Tyr) as substrate incubated for 20 mins by ATP Kinase Glo assay
Aurora kinase A = molecular target: T1, Aurora kinase A (Homo sapiens, UniProt O14965); experiment: Inhibition of recombinant GST-AURKA (residues Ser123 to Ser401) (unknown origin) expressed in Sf9 insect cells using tetra(-LRRASLG) peptide as substrate incubated for 90 mins by ATP Kinase Glo assay
T1 sequence (O14965 whole entry): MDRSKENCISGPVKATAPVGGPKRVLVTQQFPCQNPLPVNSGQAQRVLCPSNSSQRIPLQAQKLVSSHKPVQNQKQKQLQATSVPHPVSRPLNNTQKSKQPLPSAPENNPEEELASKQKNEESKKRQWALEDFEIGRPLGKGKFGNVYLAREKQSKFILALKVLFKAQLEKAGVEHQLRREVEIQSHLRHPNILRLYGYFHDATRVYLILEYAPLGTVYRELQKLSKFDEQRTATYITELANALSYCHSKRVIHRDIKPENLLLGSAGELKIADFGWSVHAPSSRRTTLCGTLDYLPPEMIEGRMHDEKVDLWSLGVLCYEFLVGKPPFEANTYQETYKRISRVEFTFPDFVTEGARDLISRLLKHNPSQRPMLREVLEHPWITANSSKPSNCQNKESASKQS

Aurora kinase B [2] = molecular target: T2, Aurora kinase B (Homo sapiens, UniProt Q96GD4); experiment: Inhibition of human recombinant full length GST-AURKB using tetra(-LRRASLG) peptide as substrate incubated for 20 mins by ATP Kinase Glo assay; design: species or system Sf9
BaF3 = experiment: Antiproliferative activity against mouse BaF3 cells transfected with human ETV6-CSF1R assessed as reduction in cell viability measured after 72 hrs by MTS method; conditions: BaF3, 72 h
NFS-60 = experiment: Antiproliferative activity against mouse NFS-60 cells transfected with human ETV6-CSF1R assessed as reduction in cell viability measured after 72 hrs by MTS method; assay type: functional, cell-based; conditions: NFS-60, 72 h
[3] = Half life in Sprague-Dawley rat at 5 mg/kg, iv measured up to 24 hrs by LC-MS/MS analysis; assay type: ADME, organism-based; conditions: in vivo
[4] = Clearance in Sprague-Dawley rat at 5 mg/kg, iv measured up to 24 hrs by LC-MS/MS analysis; assay type: ADME, organism-based; conditions: in vivo
[5] = Volume of distribution at steady state in Sprague-Dawley rat at 5 mg/kg, iv measured up to 24 hrs by LC-MS/MS analysis; assay type: ADME, organism-based; conditions: in vivo, read-out: Vdss
[6] = Half life in Sprague-Dawley rat at 20 to 25 mg/kg, po measured up to 24 hrs by LC-MS/MS analysis; assay type: ADME, organism-based; conditions: in vivo, dose 20-25 mg/kg
[7] = Dose normalized Cmax in Sprague-Dawley rat at 20 to 25 mg/kg, po measured up to 24 hrs by LC-MS/MS analysis; assay type: ADME, organism-based; conditions: in vivo, dose 20-25 mg/kg
[8] = Tmax in Sprague-Dawley rat at 20 to 25 mg/kg, po measured up to 24 hrs by LC-MS/MS analysis; assay type: ADME, organism-based; conditions: in vivo, dose 20-25 mg/kg
[9] = Oral bioavailability in Sprague-Dawley rat at 20 to 25 mg/kg measured up to 24 hrs by LC-MS/MS analysis; assay type: ADME, organism-based; conditions: in vivo, dose 20-25 mg/kg
[10] = molecular target: Mast/stem cell growth factor receptor Kit (Homo sapiens, UniProt P10721); experiment: Inhibition of human c-Kit by Kinomescan method
[11] = molecular target: Platelet-derived growth factor receptor alpha (Homo sapiens, UniProt P16234); experiment: Inhibition of wild-type human partial length PDGFRalpha (V575 to D1002 residues) expressed in mammalian expression system by Kinomescan method
[12] = molecular target: Platelet-derived growth factor receptor beta (Homo sapiens, UniProt P09619); experiment: Inhibition of wild-type human partial length PDGFRbeta (V582 to Y1009 residues) expressed in bacterial expression system by Kinomescan method
[13] = molecular target: Epithelial discoidin domain-containing receptor 1 (Homo sapiens, UniProt Q08345); experiment: Inhibition of wild-type human partial length DDR1 (R565 to V876 residues) expressed in bacterial expression system by Kinomescan method
[14] = molecular target: T3, Receptor-type tyrosine-protein kinase FLT3 (Homo sapiens, UniProt P36888); experiment: Inhibition of wild-type human partial length FLT3 (V592 to Y969 residues) expressed in bacterial expression system by Kinomescan method
T3 sequence (P36888 whole entry): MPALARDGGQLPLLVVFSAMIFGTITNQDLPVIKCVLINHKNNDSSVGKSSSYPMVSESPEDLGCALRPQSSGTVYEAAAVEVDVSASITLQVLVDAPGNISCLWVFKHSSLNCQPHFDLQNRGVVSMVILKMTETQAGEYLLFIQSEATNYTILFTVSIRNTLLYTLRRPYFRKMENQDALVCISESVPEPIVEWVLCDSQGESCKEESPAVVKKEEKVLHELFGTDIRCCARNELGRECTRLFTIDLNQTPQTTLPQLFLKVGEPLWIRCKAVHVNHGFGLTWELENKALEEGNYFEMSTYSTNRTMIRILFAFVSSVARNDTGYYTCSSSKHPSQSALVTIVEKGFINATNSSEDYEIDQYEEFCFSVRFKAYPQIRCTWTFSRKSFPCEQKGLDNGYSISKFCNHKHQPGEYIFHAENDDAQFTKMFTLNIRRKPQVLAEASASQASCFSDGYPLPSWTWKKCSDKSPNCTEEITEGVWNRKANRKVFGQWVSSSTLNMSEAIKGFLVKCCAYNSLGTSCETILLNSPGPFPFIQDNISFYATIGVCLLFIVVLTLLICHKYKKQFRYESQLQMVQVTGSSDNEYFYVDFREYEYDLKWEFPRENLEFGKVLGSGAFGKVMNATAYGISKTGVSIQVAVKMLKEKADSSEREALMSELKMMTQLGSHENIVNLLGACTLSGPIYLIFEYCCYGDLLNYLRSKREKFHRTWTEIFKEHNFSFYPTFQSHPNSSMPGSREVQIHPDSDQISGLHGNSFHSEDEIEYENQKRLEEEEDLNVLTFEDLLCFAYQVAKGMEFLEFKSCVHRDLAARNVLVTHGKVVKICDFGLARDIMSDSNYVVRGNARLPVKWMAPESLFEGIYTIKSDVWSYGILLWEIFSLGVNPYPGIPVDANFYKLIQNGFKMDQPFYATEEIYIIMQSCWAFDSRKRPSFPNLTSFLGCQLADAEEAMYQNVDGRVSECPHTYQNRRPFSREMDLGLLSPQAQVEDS

Aurora kinase B [15] = molecular target: T2, Aurora kinase B; experiment: Inhibition of wild-type human partial length AURKB (D25 to A303 residues) expressed in mammalian expression system by Kinomescan method
[16] = molecular target: Serine/threonine-protein kinase PAK 3 (Homo sapiens, UniProt O75914); experiment: Inhibition of wild-type human full length PAK3 (M1 to R544 residues) expressed in bacterial expression system by Kinomescan method
[17] = molecular target: Vascular endothelial growth factor receptor 2 (Homo sapiens, UniProt P35968); experiment: Inhibition of wild-type human partial length VEGFR2 (R787 to P1253 residues) expressed in mammalian expression system by Kinomescan method
BMDM [18] = experiment: Growth inhibition of CSF1-induced mouse BMDM cell assessed as inhibition of M2 like macrophage growth incubated for 3 days by WST-8 assay; conditions: 72 h
BMDM [19] = experiment: Growth inhibition of CSF2-induced mouse BMDM cell assessed as inhibition of M1 like macrophage growth for 3 days by WST-8 assay; conditions: 72 h
MC-38 = experiment: Antitumor activity against mouse MC38 cells inoculated C57BL/6 mouse syngeneic model assessed as tumor growth inhibition at 100 mg/kg, po twice a day for 2 weeks by five days on/two days off schedule relative to control; assay type: functional; conditions: MC-38, po, 336 h, read-out: TGI
Mus musculus [20] = experiment: Immunomodulatory activity in mouse MC38 cells inoculated C57BL/6 mouse syngeneic model assessed as […] in M1 like TAM (CD86+ CD11b+ F4/80+)at 100 mg/kg, po twice a day for 2 weeks by five days on/two days off schedule relative to control; assay type: functional, MC-38
Mus musculus [21] = experiment: Immunomodulatory activity in mouse MC38 cells inoculated C57BL/6 mouse syngeneic model assessed as decrease in M2 like TAM (CD206+ CD11b F4/80+) at 100 mg/kg, po twice a day for 2 weeks by five days on/two days off schedule relative to control; assay type: functional, MC-38
[22] = Toxicity in C57BL/6 mouse inoculated with mouse MC38 cells assessed as body weight loss at 100 mg/kg, po twice a day for 2 weeks by five days on/two days off schedule relative to control; assay type: organism-based, MC-38; conditions: in vivo, 336 h

T2 sequence (Q96GD4 whole entry): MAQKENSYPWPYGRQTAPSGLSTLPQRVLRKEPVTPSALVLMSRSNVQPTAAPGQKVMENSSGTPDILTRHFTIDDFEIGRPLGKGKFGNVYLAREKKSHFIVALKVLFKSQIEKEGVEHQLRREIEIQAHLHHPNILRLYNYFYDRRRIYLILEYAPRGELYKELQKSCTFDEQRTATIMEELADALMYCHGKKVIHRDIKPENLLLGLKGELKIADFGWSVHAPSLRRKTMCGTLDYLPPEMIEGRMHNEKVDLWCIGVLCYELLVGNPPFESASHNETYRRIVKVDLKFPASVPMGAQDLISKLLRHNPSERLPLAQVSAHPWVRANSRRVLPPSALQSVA
Chain of Macrophage colony-stimulating factor 1 receptor (P07333 whole entry, the tested form may be a part): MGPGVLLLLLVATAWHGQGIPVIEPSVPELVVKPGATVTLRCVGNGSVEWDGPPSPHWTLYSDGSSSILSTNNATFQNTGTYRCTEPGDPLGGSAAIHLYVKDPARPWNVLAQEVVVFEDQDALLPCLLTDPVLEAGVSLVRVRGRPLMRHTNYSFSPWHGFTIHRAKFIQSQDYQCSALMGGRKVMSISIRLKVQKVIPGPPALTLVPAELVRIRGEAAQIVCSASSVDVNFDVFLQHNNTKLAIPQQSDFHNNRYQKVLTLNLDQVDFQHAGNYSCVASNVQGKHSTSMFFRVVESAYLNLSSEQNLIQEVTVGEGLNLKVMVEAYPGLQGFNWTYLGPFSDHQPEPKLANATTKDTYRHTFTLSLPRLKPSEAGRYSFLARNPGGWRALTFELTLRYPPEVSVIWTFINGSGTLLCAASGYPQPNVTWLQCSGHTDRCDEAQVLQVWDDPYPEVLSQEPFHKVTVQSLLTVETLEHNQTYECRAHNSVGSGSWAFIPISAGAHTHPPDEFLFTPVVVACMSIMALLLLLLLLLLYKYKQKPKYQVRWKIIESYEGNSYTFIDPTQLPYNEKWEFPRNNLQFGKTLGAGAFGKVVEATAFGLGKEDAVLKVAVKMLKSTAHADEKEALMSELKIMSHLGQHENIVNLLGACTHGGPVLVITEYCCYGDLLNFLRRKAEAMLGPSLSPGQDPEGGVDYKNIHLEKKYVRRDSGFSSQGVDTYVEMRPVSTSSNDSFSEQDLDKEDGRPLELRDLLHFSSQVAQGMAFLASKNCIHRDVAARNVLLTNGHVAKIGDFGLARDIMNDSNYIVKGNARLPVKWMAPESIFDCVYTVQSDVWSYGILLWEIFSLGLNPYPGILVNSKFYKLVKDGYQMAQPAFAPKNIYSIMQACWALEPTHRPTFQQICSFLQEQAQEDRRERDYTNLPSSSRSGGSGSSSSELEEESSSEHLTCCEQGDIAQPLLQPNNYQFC
Chain of Mast/stem cell growth factor receptor Kit (P10721 whole entry, the tested form may be a part): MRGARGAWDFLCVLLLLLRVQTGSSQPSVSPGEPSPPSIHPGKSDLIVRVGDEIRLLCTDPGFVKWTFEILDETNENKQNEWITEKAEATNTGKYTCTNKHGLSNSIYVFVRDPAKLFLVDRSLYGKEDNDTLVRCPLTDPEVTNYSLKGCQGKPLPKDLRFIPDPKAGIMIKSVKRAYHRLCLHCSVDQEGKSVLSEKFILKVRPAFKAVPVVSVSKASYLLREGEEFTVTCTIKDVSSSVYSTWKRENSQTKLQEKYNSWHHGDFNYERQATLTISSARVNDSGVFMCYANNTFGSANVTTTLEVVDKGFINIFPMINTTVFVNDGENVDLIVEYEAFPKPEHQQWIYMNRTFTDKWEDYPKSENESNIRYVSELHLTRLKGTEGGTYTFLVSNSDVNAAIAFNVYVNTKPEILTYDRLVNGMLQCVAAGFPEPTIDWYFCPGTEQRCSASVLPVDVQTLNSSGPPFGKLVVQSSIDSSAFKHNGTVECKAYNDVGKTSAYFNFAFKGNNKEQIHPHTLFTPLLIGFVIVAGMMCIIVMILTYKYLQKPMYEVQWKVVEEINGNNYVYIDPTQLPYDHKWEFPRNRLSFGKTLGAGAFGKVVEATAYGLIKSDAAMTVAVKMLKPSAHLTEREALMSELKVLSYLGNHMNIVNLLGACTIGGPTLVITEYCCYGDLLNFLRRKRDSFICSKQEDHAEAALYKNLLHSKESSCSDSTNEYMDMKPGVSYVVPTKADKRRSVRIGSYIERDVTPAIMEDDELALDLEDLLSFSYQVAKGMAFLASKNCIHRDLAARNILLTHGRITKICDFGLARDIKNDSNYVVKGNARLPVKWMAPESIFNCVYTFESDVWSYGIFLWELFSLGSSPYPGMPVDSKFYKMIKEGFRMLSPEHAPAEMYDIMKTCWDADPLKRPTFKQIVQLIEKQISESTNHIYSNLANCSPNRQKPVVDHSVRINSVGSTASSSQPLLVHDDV
Chain of Epithelial discoidin domain-containing receptor 1 (Q08345 whole entry, the tested form may be a part): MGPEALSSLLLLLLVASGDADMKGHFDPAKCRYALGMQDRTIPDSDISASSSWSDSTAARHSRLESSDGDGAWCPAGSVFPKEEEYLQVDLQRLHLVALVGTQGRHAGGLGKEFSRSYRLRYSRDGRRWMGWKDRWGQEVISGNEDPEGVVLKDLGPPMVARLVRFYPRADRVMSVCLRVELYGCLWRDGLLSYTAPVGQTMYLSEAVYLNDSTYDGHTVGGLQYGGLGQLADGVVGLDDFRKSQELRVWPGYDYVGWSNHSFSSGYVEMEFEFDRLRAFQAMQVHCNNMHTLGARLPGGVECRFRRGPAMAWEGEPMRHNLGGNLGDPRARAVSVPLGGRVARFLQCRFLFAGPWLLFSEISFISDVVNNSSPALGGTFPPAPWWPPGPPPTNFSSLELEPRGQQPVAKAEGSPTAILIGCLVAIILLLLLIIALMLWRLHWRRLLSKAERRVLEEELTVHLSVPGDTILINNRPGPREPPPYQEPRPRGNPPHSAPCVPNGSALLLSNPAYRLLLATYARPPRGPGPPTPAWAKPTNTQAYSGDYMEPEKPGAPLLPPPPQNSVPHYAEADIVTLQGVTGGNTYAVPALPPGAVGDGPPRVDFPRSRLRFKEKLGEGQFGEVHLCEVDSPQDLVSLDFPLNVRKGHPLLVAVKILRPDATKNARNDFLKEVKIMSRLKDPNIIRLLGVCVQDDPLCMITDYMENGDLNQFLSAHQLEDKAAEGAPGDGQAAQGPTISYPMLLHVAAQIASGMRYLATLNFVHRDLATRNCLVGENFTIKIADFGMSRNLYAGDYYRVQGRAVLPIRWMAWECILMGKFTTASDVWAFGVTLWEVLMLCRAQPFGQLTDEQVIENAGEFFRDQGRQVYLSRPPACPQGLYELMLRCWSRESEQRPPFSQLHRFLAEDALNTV
Chain of Platelet-derived growth factor receptor beta (P09619 whole entry, the tested form may be a part): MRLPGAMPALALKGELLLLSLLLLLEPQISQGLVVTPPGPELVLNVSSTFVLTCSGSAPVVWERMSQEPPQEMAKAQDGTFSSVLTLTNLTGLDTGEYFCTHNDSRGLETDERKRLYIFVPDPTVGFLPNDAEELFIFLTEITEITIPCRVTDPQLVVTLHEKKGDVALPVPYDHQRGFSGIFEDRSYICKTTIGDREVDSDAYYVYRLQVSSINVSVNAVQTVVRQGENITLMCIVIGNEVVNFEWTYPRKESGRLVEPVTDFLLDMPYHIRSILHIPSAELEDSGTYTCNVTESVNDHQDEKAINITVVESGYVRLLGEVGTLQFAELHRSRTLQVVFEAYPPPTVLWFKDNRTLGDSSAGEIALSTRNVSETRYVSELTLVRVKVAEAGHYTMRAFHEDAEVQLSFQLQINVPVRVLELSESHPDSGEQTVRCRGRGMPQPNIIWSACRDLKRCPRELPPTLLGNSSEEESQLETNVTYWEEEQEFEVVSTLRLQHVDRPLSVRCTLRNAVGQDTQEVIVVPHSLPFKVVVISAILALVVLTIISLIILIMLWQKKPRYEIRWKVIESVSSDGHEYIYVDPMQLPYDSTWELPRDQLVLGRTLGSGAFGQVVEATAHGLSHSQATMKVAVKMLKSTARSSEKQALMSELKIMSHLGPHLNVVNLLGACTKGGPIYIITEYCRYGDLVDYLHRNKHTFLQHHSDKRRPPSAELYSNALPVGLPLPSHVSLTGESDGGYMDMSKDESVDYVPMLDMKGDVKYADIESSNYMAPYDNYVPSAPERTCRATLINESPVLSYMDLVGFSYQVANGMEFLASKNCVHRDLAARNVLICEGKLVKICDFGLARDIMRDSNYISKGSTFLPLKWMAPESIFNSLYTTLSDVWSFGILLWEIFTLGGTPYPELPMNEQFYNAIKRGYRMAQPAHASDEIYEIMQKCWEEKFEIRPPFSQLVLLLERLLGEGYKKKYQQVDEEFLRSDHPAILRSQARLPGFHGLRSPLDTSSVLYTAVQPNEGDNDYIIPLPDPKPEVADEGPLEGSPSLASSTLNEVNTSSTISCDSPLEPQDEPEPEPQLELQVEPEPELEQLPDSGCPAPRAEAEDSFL
Chain of Serine/threonine-protein kinase PAK 3 (O75914 whole entry, the tested form may be a part): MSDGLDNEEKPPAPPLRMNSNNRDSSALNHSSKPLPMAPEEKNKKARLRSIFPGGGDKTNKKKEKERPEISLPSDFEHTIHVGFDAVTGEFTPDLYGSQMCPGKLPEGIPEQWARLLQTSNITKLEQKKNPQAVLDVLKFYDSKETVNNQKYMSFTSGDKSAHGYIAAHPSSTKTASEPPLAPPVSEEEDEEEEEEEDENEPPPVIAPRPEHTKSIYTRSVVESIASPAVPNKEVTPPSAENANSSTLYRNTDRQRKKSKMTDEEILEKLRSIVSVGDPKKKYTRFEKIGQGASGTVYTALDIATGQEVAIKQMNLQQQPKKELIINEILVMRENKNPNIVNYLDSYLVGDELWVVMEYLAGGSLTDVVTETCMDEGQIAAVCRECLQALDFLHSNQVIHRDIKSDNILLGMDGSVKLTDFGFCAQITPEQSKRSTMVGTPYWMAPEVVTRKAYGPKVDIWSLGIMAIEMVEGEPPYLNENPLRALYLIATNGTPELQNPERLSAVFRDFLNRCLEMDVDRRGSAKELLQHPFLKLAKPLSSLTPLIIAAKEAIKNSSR

- IC50 [1]: 14.4 nM
- IC50 (Aurora kinase A): > 10000 nM
- IC50 (Aurora kinase B [2]): 1400 nM
- EC50 (BaF3): 80 nM
- half-life [3]: 2.9 h
- clearance [4]: 4.5 mL/min/kg
- Vd [5]: 0.6 L/kg
- half-life [6]: 8.7 h
- Cmax/dose [7]: 24 ng/mL
- Tmax [8]: 5.5 h
- bioavailability [9]: 10%
- IC50 [10]: 1.1 nM
- IC50 [11]: 52.7 nM
- IC50 [12]: 31.5 nM
- IC50 [13]: 59.7 nM
- IC50 [14]: 64.3 nM
- IC50 (Aurora kinase B [15]): 226 nM
- IC50 [16]: > 9000 nM
- IC50 [17]: > 9000 nM
SMILES: CN(C)c1ccc2c(Oc3ccc(NC(=O)NCc4ccc(C(F)(F)F)nc4)cc3)ncnc2c1
- EC50 (NFS-60): 95 nM
- IC50 (BMDM [18]): 31 nM
- IC50 (BMDM [19]): 5390 nM

- half-life [3]: 2.4 h
- clearance [4]: 8.9 mL/min/kg
- Vd [5]: 1 L/kg
- half-life [6]: 11.6 h
- Cmax/dose [7]: 68 ng/mL
- Tmax [8]: 0.5 h
- bioavailability [9]: 34.9%
SMILES: CN(C)c1ccc2c(Oc3ccc(NC(=O)NCc4ccc(C(F)(F)F)nc4)cc3)ncnc2c1.CS(=O)(=O)O
- inhibition in vivo at 100 mg/kg (MC-38): 59%
- fold change (FC) (Mus musculus [20]): 3
- fold change (FC) (Mus musculus [21]): 2.5
- Activity [22]: Non-Toxic
